According to patent US20120077836A1, “METHODS OF ADMINISTERING (4AR,10AR)-1-N-PROPYL-1,2,3,4,4A,5,10,10A-OCTAHYDROBENZO [G] QUINOLINE-6,7-DIOL AND RELATED COMPOUNDS ACROSS THE ORAL MUCOSA, THE NASAL MUCOSA OR THE SKIN AND PHARMACEUTICAL COMPOSITIONS THEREOF” (priority 2009, published 2012):
Where a name gives a salt, the structure may show the parent alone. Read-outs that look alike come from different tables or passages of the source.

Test: Intravenous and buccal pharmacokinetic study in the minipig
Type: in vivo
Details: male, Göttingen, in vivo
Experimental: The test article was compound 10. The vehicles for the test article were Sterile saline (0.9% NaCl) (intravenous administration) supplied by Baxter, Norfolk or Ascorbic acid reconstituted in Water for Injection (buccal administration) supplied by VWR International, Leicestershire. Formulations were prepared on the day of dosing.
Three male minipigs of the Göttingen ApS strain were supplied by Ellegaard Göttingen, Dalmose, Denmark. At initiation of dosing, animals were approximately 15 to 17 weeks old. Each animal was dosed once on three separate occasions according to the following study design:
Animals were deprived of food overnight and anaesthetised with isoflurane in oxygen (administered by facemask), prior to each dosing occasion.
Intravenous administrations were performed by slow manual injection via a temporary catheter placed in the ear vein whilst under anaesthesia, animals were allowed to recover from the anaesthesia immediately after dosing. Whilst anaesthetised, a catheter was inserted into the jugular vein and secured in place for the purpose of blood collection. The catheter was filled with heparin (250 iu/mL in 0.9% sodium chloride). The exterior portion of the catheter was routed from the ventral neck to the dorsum of the minipig and protected by bandaging. The distal end of the catheter was capped and placed in a re-sealable pouch within the bandage. The jugular catheter was retained in place and flushed with heparinised saline every 24 hours.
Buccal administrations were performed by applying the test formulation to the buccal membrane for 5 minutes while the animal was anaesthetised. Any residual formulation remaining in the mouth after the 5 minute application was […]. Animals were allowed to recover from the anaesthesia immediately after dosing.
, all animals on Day 3 following buccal administration of a low dose and all animals on Day 5 following buccal administration of a high dose for pharmacokinetic analysis. The samples (1.0 mL) were collected from the jugular vein (via catheter) into tubes containing EDTA anticoagulant. Prior to addition of the blood sample, 100 microL of a stabiliser (2% beta-mercaptoethanol containing 20 mg/mL ascorbic acid) was added to each pot. The stabiliser was prepared fresh on each day of sample collection. Samples were collected as follows: • Day 1: 5, 10, 15, 30 and 45 minutes and 1, 2, 4, 6, 8, 12 and 16 hours post-dose • Day 3: pre-dose and at 5, 10, 15, 30 and 45 minutes and 1, 2, 4, 6, 8, 12, 16 and 24 hours post-dose • Day 5: pre-dose and at 5, 10, 15, 30 and 45 minutes and 1, 2, 4, 6, 8, 12, 16 and 24 hours post-dose
The times of the blood sampling were generally adhered to. The greatest deviation from the scheduled timepoints was one minute late at the 5 minute timepoint on Day 3. The blood samples were centrifuged within one hour of sample collection and the resultant plasma was frozen prior to analysis.
The plasma concentrations of compound 10 were determined after solid phase extraction of the plasma samples followed by high performance liquid chromatography with tandem mass spectrometric detection (LC-MS/MS) using a sample volume of about 100 microL.
Internal standard solution, containing the internal standard of compound 10 was added to thawed plasma samples (100 microL aliquot). The SPE plate (Oasis HLB, 10 mg) was conditioned with methanol (500 microL) followed by water (500 microL). The sample (approx. 500 microL aliquot) was transferred to the pre-conditioned SPE plate. The sample was then passed through the cartridge, which was then washed with water:methanol (90:10 v/v, 0.5 mL). The sample was then eluted into a fresh 96 well polypropylene collection plate with 20 mM ammonium formate (aq): acetonitrile: formic acid (50:50:2 v/v/v, 250 microL). The organic component of the eluted samples was then evaporated under a gentle stream of nitrogen until approximately 50% of the original volume was remaining. […]

CCCN1CCC[C@@H]2Cc3c(ccc(O)c3O)C[C@H]21 [compound 10, (4aR,10aR)-1-n-Propyl-1,2,3,4,4a,5,10,10a-octahydro-benzo[g]quinoline-6,7-diol hydrobromide]
concentration at 0.17 h (0.01 mg/kg, buccal 0.010 mg/kg, mean, read-out: Plasma concentration Day 3 Hour 0.17, Mean): 0.148 ng/mL
concentration at 0.25 h (0.01 mg/kg, buccal 0.010 mg/kg, mean, read-out: Plasma concentration Day 3 Hour 0.25, Mean): 0.314 ng/mL
concentration at 0.5 h (0.01 mg/kg, buccal 0.010 mg/kg, mean, read-out: Plasma concentration Day 3 Hour 0.5, Mean): 0.752 ng/mL
concentration at 0.75 h (0.01 mg/kg, buccal 0.010 mg/kg, mean, read-out: Plasma concentration Day 3 Hour 0.75, Mean): 1.04 ng/mL
concentration at 1 h (0.01 mg/kg, buccal 0.010 mg/kg, mean, read-out: Plasma concentration Day 3 Hour 1, Mean): 0.869 ng/mL
concentration at 2 h (0.01 mg/kg, buccal 0.010 mg/kg, mean, read-out: Plasma concentration Day 3 Hour 2, Mean): 0.487 ng/mL
bioavailability (0.01 mg/kg, buccal 0.010 mg/kg, range, read-out: bioavailability): 30 to 42%
bioavailability (0.01 mg/kg, buccal 0.010 mg/kg, read-out: bioavailability, mean values): 31 to 35%
half-life (0.01 mg/kg, buccal 0.010 mg/kg, read-out: mean apparent terminal half-life (converted)): 5.1 h
Tmax (0.04 mg/kg, buccal 0.040 mg/kg, animal 1): 1 h
concentration at 0.5 h (0.04 mg/kg, buccal 0.040 mg/kg, individual animals 1-3, read-out: Plasma concentration Day 5 Hour 0.5): 7.88 ng/mL
concentration at 0.75 h (0.04 mg/kg, buccal 0.040 mg/kg, individual animals 1-3, read-out: Plasma concentration Day 5 Hour 0.75): 15.9 ng/mL
concentration at 1 h (0.04 mg/kg, buccal 0.040 mg/kg, individual animals 1-3, read-out: Plasma concentration Day 5 Hour 1): 11.9 ng/mL
concentration at 4 h (0.04 mg/kg, buccal 0.040 mg/kg, mean, read-out: Plasma concentration Day 1 Hour 4, Mean): 1.93 ng/mL
concentration at 6 h (0.04 mg/kg, buccal 0.040 mg/kg, mean, read-out: Plasma concentration Day 1 Hour 6, Mean): 0.93 ng/mL
concentration at 8 h (0.04 mg/kg, buccal 0.040 mg/kg, mean, read-out: Plasma concentration Day 1 Hour 8, Mean): 0.522 ng/mL
concentration at 12 h (0.04 mg/kg, buccal 0.040 mg/kg, mean, read-out: Plasma concentration Day 1 Hour 12, Mean): 0.604 ng/mL
concentration at 16 h (0.04 mg/kg, buccal 0.040 mg/kg, mean, read-out: Plasma concentration Day 1 Hour 16, Mean): 0.292 ng/mL
concentration at 24 h (0.04 mg/kg, buccal 0.040 mg/kg, mean, read-out: Plasma concentration Day 1 Hour 24, Mean): 0.119 ng/mL
concentration at 0.08 h (0.04 mg/kg, buccal 0.040 mg/kg, mean, read-out: Plasma concentration Day 5 Hour 0.08, Mean): 1.29 ng/mL
concentration at 0.17 h (0.04 mg/kg, buccal 0.040 mg/kg, mean, read-out: Plasma concentration Day 5 Hour 0.17, Mean): 3.27 ng/mL
concentration at 0.25 h (0.04 mg/kg, buccal 0.040 mg/kg, mean, read-out: Plasma concentration Day 5 Hour 0.25, Mean): 5.45 ng/mL
concentration at 0.5 h (0.04 mg/kg, buccal 0.040 mg/kg, mean, read-out: Plasma concentration Day 5 Hour 0.5, Mean): 7.14 ng/mL
concentration at 0.75 h (0.04 mg/kg, buccal 0.040 mg/kg, mean, read-out: Plasma concentration Day 5 Hour 0.75, Mean): 12.4 ng/mL
concentration at 1 h (0.04 mg/kg, buccal 0.040 mg/kg, mean, read-out: Plasma concentration Day 5 Hour 1, Mean): 10.8 ng/mL
concentration at 2 h (0.04 mg/kg, buccal 0.040 mg/kg, mean, read-out: Plasma concentration Day 5 Hour 2, Mean): 6.3 ng/mL
bioavailability (0.04 mg/kg, buccal 0.040 mg/kg, range, read-out: bioavailability): 73 to 136%
bioavailability (0.04 mg/kg, buccal 0.040 mg/kg, read-out: bioavailability, mean values): 105 to 122%
half-life (0.04 mg/kg, buccal 0.040 mg/kg, read-out: mean apparent terminal half-life (converted)): 5.6 h
half-life (IV bolus 0.0025 mg/kg, range of animals, read-out: apparent terminal elimination half-life (t½)): 3.4 to 4.3 h
half-life (IV bolus 0.025 mg/kg (as printed in conclusion), read-out: individual apparent terminal elimination half-life): 3.4 to 4.3 h
half-life (buccal, range in individual animals, read-out: apparent terminal elimination half-life): 3.1 to 5.6 h
concentration at 0.08 h (iv, 0.0025 mg/kg, IV 0.0025 mg/kg, individual animals 1-3, read-out: Plasma concentration Day 1 Hour 0.08): 1.21 ng/mL
concentration at 0.17 h (iv, 0.0025 mg/kg, IV 0.0025 mg/kg, individual animals 1-3, read-out: Plasma concentration Day 1 Hour 0.17): 0.834 ng/mL
concentration at 0.25 h (iv, 0.0025 mg/kg, IV 0.0025 mg/kg, individual animals 1-3, read-out: Plasma concentration Day 1 Hour 0.25): 0.74 ng/mL
concentration at 0.5 h (iv, 0.0025 mg/kg, IV 0.0025 mg/kg, individual animals 1-3, read-out: Plasma concentration Day 1 Hour 0.5): 0.562 ng/mL
concentration at 0.75 h (iv, 0.0025 mg/kg, IV 0.0025 mg/kg, individual animals 1-3, read-out: Plasma concentration Day 1 Hour 0.75): 0.534 ng/mL
concentration at 1 h (iv, 0.0025 mg/kg, IV 0.0025 mg/kg, individual animals 1-3, read-out: Plasma concentration Day 1 Hour 1): 0.379 ng/mL
concentration at 2 h (iv, 0.0025 mg/kg, IV 0.0025 mg/kg, individual animals 1-3, read-out: Plasma concentration Day 1 Hour 2): 0.198 ng/mL
concentration at 4 h (iv, 0.0025 mg/kg, IV 0.0025 mg/kg, individual animals 1-3, read-out: Plasma concentration Day 1 Hour 4): 0.0748 ng/mL
concentration at 6 h (iv, 0.0025 mg/kg, IV 0.0025 mg/kg, individual animals 1-3, read-out: Plasma concentration Day 1 Hour 6): 0.0476 ng/mL
concentration at 8 h (iv, 0.0025 mg/kg, IV 0.0025 mg/kg, individual animals 1-3, read-out: Plasma concentration Day 1 Hour 8): 0.0245 ng/mL
concentration at 12 h (iv, 0.0025 mg/kg, IV 0.0025 mg/kg, individual animals 1-3, read-out: Plasma concentration Day 1 Hour 12): 0.017 ng/mL
concentration at 16 h (iv, 0.0025 mg/kg, IV 0.0025 mg/kg, individual animals 1-3, values below LLOQ 10 pg/mL estimated, read-out: Plasma concentration Day 1 Hour 16): 0.00858 ng/mL
concentration at 0.08 h (iv, 0.0025 mg/kg, IV 0.0025 mg/kg, mean, read-out: Plasma concentration Day 1 Hour 0.08, Mean): 1.62 ng/mL
concentration at 0.17 h (iv, 0.0025 mg/kg, IV 0.0025 mg/kg, mean, read-out: Plasma concentration Day 1 Hour 0.17, Mean): 1.02 ng/mL
concentration at 0.25 h (iv, 0.0025 mg/kg, IV 0.0025 mg/kg, mean, read-out: Plasma concentration Day 1 Hour 0.25, Mean): 0.913 ng/mL
concentration at 0.5 h (iv, 0.0025 mg/kg, IV 0.0025 mg/kg, mean, read-out: Plasma concentration Day 1 Hour 0.5, Mean): 0.673 ng/mL
concentration at 0.75 h (iv, 0.0025 mg/kg, IV 0.0025 mg/kg, mean, read-out: Plasma concentration Day 1 Hour 0.75, Mean): 0.619 ng/mL
concentration at 1 h (iv, 0.0025 mg/kg, IV 0.0025 mg/kg, mean, read-out: Plasma concentration Day 1 Hour 1, Mean): 0.421 ng/mL
concentration at 2 h (iv, 0.0025 mg/kg, IV 0.0025 mg/kg, mean, read-out: Plasma concentration Day 1 Hour 2, Mean): 0.249 ng/mL
concentration at 4 h (iv, 0.0025 mg/kg, IV 0.0025 mg/kg, mean, read-out: Plasma concentration Day 1 Hour 4, Mean): 0.0887 ng/mL
concentration at 6 h (iv, 0.0025 mg/kg, IV 0.0025 mg/kg, mean, read-out: Plasma concentration Day 1 Hour 6, Mean): 0.0598 ng/mL
concentration at 8 h (iv, 0.0025 mg/kg, IV 0.0025 mg/kg, mean, read-out: Plasma concentration Day 1 Hour 8, Mean): 0.033 ng/mL
concentration at 12 h (iv, 0.0025 mg/kg, IV 0.0025 mg/kg, mean, read-out: Plasma concentration Day 1 Hour 12, Mean): 0.0226 ng/mL
concentration at 16 h (iv, 0.0025 mg/kg, IV 0.0025 mg/kg, mean, read-out: Plasma concentration Day 1 Hour 16, Mean): 0.00931 ng/mL
